According to patent US20250101023A1, “HETEROARYL DERIVATIVE AND USES THEREOF” (IUCF-HYU (INDUSTRY-UNIVERSITY COOPERATION FOUNDATION …, priority 2022, published 2025):

How the values were obtained:
[1] = test system: cyclinK; experiment: Western blot, cyclinK degradation; assay type: cell-based; settings: SK-Br3 and HCC1954 cell lines, 40 and 200 nM, 2 hours
[2] = target: CYP2C19 (Homo sapiens (Human), UniProt P33261); experiment: CYP inhibitory activity; assay type: in vitro ADME; settings: read-out: CYP % activity at 10 μM concentration 2C19
Experimental: (§1) 5 derivatives were evaluated for in vitro metabolic stability in liver microsomes from three different species (human, dog, mouse) and for inhibitory activity against 5 representative cytochrome P450 enzymes (CYPs)(Table 3). In terms of liver microsomal stability, the 2′-pyridyl group is more suitable than the α-methyl-4′-pyridyl group as the terminal aromatic group at position 6, and the aminopyrimidyl group is better than the aminopyridyl group as a substituent at position 2.

[3] = target: CYP2C9 (Homo sapiens (Human), UniProt P11712); experiment: CYP inhibitory activity; assay type: in vitro ADME; settings: read-out: CYP % activity at 10 μM concentration 2C9
Experimental: as §1

[4] = target: CYP2D6 (Homo sapiens (Human), UniProt P10635); experiment: CYP inhibitory activity; assay type: in vitro ADME; settings: read-out: CYP % activity at 10 μM concentration 2D6
Experimental: as §1

[5] = target: CYP3A4 (Homo sapiens (Human), UniProt P08684); experiment: CYP inhibitory activity; assay type: in vitro ADME; settings: read-out: CYP % activity at 10 μM concentration 3A4
Experimental: as §1

[6] = target: ERK7/MAPK15 (Homo sapiens (Human), UniProt Q8TD08); experiment: Kinome-wide profiling; assay type: biochemical; settings: read-out: % Residual Activity (mean)
[7] = target: CDK4/cyclin D2 (Homo sapiens (Human), UniProt P11802); experiment: Kinome-wide profiling; assay type: biochemical; settings: read-out: % Residual Activity (mean)
[8] = target: TAOK2/TAO1 (Homo sapiens (Human), UniProt Q9UL54); experiment: Kinome-wide profiling; assay type: biochemical; settings: read-out: % Residual Activity (mean)
[9] = target: CK1epsilon (Homo sapiens (Human), UniProt P49674); experiment: Kinome-wide profiling; assay type: biochemical; settings: read-out: % Residual Activity (mean)
[10] = target: IRR/INSRR (Homo sapiens (Human), UniProt P14616); experiment: Kinome-wide profiling; assay type: biochemical; settings: read-out: % Residual Activity (mean)
[11] = target: FGFR2 (Homo sapiens (Human), UniProt P21802); experiment: Kinome-wide profiling; assay type: biochemical; settings: read-out: % Residual Activity (mean)
[12] = target: STK16 (Homo sapiens (Human), UniProt O75716); experiment: Kinome-wide profiling; assay type: biochemical; settings: read-out: % Residual Activity (mean)
[13] = target: PDGFRa (Homo sapiens (Human), UniProt P16234); experiment: Kinome-wide profiling; assay type: biochemical; settings: read-out: % Residual Activity (mean)
[14] = target: SRPK1 (Homo sapiens (Human), UniProt Q96SB4); experiment: Kinome-wide profiling; assay type: biochemical; settings: read-out: % Residual Activity (mean)
[15] = target: LYN (Homo sapiens (Human), UniProt P07948); experiment: Kinome-wide profiling; assay type: biochemical; settings: read-out: % Residual Activity (mean)
[16] = target: RIPK2 (Homo sapiens (Human), UniProt O43353); experiment: Kinome-wide profiling; assay type: biochemical; settings: read-out: % Residual Activity (mean)
[17] = target: CAMK1b (Homo sapiens (Human), UniProt Q6P2M8); experiment: Kinome-wide profiling; assay type: biochemical; settings: read-out: % Residual Activity (mean)
[18] = target: PLK1 (Homo sapiens (Human), UniProt P53350); experiment: Kinome-wide profiling; assay type: biochemical; settings: read-out: % Residual Activity (mean)
[19] = target: ULK1 (Homo sapiens (Human), UniProt O75385); experiment: Kinome-wide profiling; assay type: biochemical; settings: read-out: % Residual Activity (mean)
[20] = target: PKCmu/PRKD1 (Homo sapiens (Human), UniProt Q15139); experiment: Kinome-wide profiling; assay type: biochemical; settings: read-out: % Residual Activity (mean)
[21] = target: MYO3A (Homo sapiens (Human), UniProt Q8NEV4); experiment: Kinome-wide profiling; assay type: biochemical; settings: read-out: % Residual Activity (mean)
[22] = target: PKD2/PRKD2 (Homo sapiens (Human), UniProt Q9BZL6); experiment: Kinome-wide profiling; assay type: biochemical; settings: read-out: % Residual Activity (mean)
[23] = target: DCAMKL1 (Homo sapiens (Human), UniProt O15075); experiment: Kinome-wide profiling; assay type: biochemical; settings: read-out: % Residual Activity (mean)
[24] = target: PKN3/PRK3 (Homo sapiens (Human), UniProt Q6P5Z2); experiment: Kinome-wide profiling; assay type: biochemical; settings: read-out: % Residual Activity (mean)
[25] = target: NEK3 (Homo sapiens (Human), UniProt P51956); experiment: Kinome-wide profiling; assay type: biochemical; settings: read-out: % Residual Activity (mean)
[26] = target: SSTK/TSSK6 (Homo sapiens (Human), UniProt Q9BXA6); experiment: Kinome-wide profiling; assay type: biochemical; settings: read-out: % Residual Activity (mean)
[27] = target: DDR2 (Homo sapiens (Human), UniProt Q16832); experiment: Kinome-wide profiling; assay type: biochemical; settings: read-out: % Residual Activity (mean)
[28] = target: PKCb1 (Homo sapiens (Human), UniProt P05771); experiment: Kinome-wide profiling; assay type: biochemical; settings: read-out: % Residual Activity (mean)
[29] = target: NEK11 (Homo sapiens (Human), UniProt Q8NG66); experiment: Kinome-wide profiling; assay type: biochemical; settings: read-out: % Residual Activity (mean)
[30] = target: TGFBR2 (Homo sapiens (Human), UniProt P37173); experiment: Kinome-wide profiling; assay type: biochemical; settings: read-out: % Residual Activity (mean)
[31] = target: PKCd (Homo sapiens (Human), UniProt Q05655); experiment: Kinome-wide profiling; assay type: biochemical; settings: read-out: % Residual Activity (mean)
[32] = target: MKK6 (Homo sapiens (Human), UniProt P52564); experiment: Kinome-wide profiling; assay type: biochemical; settings: read-out: % Residual Activity (mean)
[33] = target: PASK (Homo sapiens (Human), UniProt Q96RG2); experiment: Kinome-wide profiling; assay type: biochemical; settings: read-out: % Residual Activity (mean)
[34] = target: MKK7 (Homo sapiens (Human), UniProt O14733); experiment: Kinome-wide profiling; assay type: biochemical; settings: read-out: % Residual Activity (mean)
[35] = target: BRSK2 (Homo sapiens (Human), UniProt Q8IWQ3); experiment: Kinome-wide profiling; assay type: biochemical; settings: read-out: % Residual Activity (mean)

Chain of CK1epsilon (P49674 whole entry): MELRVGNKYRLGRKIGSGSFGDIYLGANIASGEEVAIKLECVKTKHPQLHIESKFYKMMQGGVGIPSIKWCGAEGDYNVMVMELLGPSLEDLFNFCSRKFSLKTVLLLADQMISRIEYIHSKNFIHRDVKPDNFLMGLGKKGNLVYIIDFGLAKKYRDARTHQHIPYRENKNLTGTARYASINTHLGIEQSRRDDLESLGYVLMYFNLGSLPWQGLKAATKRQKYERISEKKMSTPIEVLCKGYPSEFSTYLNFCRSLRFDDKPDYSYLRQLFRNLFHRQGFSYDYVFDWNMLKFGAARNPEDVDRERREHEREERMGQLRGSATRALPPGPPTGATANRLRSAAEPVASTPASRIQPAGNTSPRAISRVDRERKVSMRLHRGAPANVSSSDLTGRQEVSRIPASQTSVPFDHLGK
Chain of CYP2C19 (P33261 whole entry): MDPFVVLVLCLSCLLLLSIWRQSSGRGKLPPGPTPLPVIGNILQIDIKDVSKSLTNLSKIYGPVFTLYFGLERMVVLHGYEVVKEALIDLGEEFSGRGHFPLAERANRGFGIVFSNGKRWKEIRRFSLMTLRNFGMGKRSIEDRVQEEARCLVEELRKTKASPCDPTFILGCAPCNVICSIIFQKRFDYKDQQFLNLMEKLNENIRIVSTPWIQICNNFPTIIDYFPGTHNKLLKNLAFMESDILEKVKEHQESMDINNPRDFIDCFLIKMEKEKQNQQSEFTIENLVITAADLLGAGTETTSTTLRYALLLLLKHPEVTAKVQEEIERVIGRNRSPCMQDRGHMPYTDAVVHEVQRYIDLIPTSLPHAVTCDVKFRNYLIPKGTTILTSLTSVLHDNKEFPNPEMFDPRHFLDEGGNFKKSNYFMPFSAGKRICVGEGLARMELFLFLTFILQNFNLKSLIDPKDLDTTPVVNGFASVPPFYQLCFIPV
Chain of MKK6 (P52564 whole entry): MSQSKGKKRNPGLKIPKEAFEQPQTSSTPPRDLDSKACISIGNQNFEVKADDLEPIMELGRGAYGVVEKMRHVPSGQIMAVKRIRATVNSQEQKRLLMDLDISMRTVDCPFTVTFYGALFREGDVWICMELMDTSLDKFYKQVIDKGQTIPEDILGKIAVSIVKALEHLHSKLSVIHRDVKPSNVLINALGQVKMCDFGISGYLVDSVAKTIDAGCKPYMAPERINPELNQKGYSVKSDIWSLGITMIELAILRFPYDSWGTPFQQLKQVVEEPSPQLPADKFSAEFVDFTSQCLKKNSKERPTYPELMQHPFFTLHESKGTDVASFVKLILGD
Chain of PASK (Q96RG2 whole entry): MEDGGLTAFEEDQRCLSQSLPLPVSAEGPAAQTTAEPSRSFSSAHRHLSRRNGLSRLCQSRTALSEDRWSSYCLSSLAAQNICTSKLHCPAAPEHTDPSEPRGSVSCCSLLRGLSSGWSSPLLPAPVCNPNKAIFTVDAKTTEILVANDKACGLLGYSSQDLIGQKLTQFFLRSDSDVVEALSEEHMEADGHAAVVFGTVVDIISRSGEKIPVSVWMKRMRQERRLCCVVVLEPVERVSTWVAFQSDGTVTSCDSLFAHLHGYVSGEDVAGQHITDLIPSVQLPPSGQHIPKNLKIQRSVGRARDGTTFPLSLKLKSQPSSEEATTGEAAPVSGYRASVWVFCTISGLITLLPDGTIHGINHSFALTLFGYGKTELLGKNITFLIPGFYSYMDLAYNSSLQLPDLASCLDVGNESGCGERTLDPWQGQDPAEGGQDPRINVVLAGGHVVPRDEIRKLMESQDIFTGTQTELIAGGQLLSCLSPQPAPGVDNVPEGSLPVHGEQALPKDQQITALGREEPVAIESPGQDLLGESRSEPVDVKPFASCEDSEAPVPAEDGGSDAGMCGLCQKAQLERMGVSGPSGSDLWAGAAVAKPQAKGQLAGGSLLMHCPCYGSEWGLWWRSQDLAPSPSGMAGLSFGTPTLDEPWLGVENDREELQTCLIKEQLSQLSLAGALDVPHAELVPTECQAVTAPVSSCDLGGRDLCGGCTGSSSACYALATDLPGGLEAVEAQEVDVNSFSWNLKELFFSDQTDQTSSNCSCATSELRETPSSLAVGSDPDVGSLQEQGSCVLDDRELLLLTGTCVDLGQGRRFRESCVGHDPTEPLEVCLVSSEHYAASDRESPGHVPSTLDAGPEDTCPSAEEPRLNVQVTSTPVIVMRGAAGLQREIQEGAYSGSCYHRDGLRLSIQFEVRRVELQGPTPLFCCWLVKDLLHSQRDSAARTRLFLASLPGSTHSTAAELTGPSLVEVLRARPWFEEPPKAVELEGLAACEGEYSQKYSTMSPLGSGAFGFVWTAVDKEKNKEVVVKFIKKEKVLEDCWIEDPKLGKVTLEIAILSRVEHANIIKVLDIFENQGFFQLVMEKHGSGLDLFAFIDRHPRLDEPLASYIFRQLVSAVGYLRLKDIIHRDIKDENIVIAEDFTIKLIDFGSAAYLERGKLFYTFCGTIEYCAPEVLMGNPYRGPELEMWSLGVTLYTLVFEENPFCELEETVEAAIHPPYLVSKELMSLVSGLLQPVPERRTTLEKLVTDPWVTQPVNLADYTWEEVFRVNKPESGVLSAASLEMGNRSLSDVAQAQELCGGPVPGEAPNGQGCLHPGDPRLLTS
Chain of PLK1 (P53350 whole entry): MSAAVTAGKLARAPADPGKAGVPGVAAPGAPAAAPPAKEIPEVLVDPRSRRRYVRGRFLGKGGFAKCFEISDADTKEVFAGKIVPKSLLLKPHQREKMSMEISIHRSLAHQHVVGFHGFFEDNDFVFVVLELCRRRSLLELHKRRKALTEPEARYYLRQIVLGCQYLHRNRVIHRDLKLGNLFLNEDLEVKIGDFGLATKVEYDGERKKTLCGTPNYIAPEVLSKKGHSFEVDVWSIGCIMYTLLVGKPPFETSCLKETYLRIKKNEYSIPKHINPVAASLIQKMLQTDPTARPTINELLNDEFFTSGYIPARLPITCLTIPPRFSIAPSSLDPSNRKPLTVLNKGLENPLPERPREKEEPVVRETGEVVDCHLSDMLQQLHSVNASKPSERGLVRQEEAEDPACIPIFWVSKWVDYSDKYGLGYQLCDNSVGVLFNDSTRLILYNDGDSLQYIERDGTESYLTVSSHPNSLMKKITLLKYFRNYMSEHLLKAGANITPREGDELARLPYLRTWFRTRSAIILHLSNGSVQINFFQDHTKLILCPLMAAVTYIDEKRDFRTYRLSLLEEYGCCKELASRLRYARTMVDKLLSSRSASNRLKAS
Chain of TGFBR2 (P37173 23-567): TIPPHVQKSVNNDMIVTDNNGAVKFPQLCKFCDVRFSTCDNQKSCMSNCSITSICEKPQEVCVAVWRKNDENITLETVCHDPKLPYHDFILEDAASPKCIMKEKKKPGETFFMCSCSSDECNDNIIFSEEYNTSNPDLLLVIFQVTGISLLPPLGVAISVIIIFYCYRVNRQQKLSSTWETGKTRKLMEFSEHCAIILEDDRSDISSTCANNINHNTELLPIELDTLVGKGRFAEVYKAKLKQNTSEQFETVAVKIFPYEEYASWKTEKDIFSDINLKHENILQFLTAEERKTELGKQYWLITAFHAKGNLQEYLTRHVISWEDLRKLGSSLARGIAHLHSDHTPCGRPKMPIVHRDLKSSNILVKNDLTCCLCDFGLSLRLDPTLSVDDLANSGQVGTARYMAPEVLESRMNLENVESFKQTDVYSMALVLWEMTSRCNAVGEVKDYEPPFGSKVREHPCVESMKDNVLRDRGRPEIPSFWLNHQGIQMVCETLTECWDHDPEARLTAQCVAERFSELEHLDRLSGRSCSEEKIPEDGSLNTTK
Chain of IRR/INSRR (P14616 27-1297): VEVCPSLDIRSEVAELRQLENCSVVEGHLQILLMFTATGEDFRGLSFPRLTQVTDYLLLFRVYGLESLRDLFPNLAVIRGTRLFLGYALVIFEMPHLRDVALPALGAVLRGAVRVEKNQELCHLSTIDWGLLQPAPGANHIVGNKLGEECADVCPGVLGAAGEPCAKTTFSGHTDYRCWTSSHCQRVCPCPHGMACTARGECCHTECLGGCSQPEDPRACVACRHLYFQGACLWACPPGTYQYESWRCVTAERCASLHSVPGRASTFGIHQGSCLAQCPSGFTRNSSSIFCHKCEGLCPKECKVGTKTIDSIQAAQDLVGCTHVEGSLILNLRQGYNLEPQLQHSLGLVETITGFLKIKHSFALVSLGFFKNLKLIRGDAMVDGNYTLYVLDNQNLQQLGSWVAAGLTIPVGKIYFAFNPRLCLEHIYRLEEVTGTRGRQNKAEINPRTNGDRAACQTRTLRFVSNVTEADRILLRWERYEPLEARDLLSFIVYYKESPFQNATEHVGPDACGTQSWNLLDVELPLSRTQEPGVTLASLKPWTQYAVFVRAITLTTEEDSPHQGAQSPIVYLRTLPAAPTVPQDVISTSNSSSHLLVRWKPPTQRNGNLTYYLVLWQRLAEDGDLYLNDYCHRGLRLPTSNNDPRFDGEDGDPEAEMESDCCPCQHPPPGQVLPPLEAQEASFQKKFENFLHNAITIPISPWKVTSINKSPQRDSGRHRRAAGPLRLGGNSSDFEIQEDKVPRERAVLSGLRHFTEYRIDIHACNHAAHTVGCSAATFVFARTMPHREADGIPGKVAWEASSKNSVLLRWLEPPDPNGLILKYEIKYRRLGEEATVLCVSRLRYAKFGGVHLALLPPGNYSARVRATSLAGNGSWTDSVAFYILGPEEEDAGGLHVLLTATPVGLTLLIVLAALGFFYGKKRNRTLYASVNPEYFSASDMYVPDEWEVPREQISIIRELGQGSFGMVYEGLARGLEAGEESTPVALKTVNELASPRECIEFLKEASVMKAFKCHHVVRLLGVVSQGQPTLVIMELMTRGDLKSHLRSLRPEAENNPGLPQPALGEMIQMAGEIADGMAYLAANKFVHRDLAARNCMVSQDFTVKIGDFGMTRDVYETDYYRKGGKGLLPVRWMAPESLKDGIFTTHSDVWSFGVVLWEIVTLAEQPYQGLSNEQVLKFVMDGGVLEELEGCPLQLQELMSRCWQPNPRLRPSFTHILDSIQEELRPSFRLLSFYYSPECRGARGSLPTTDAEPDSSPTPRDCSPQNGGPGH

CCn1cnc2c(NCc3ccc(-c4ccccn4)nc3)nc(-c3ccc(N)nc3)nc21 [Example 53, N-([2,2′-bipyridin]-5-ylmethyl)-2-(6-aminopyridin-3-yl)-9-ethyl-9H-purin-6-amine]
cyclinK degradation [1]: induced cyclinK degradation | cyclinK degradation ([1]; listed as Compound 53): cyclinK levels were greatly suppressed in a dose-dependent manner | activity at 10 µM [2]: 68.1% | activity at 10 µM [3]: 57.9% | activity at 10 µM [4]: 81% | activity at 10 µM [5]: 43% | remaining activity at 10 µM [6]: 13.5% | remaining activity at 10 µM [7]: 21.8% | remaining activity at 10 µM [8]: 23.8% | remaining activity at 10 µM [9]: 29.8% | remaining activity at 10 µM [10]: 31.1% | remaining activity at 10 µM [11]: 33.7% | remaining activity at 10 µM [12]: 35.9% | remaining activity at 10 µM [13]: 52.8% | remaining activity at 10 µM [14]: 54.3% | remaining activity at 10 µM [15]: 65.7% | remaining activity at 10 µM [16]: 66.1% | remaining activity at 10 µM [17]: 66.8% | remaining activity at 10 µM [18]: 68.3% | remaining activity at 10 µM [19]: 70.3% | remaining activity at 10 µM [20]: 70.3% | remaining activity at 10 µM [21]: 71.3% | remaining activity at 10 µM [22]: 72.3% | remaining activity at 10 µM [23]: 72.6% | remaining activity at 10 µM [24]: 81.5% | remaining activity at 10 µM [25]: 86.6% | remaining activity at 10 µM [26]: 86.9% | remaining activity at 10 µM [27]: 87.2% | remaining activity at 10 µM [28]: 89.9% | remaining activity at 10 µM [29]: 94.2% | remaining activity at 10 µM [30]: 94.5% | remaining activity at 10 µM [31]: 95.2% | remaining activity at 10 µM [32]: 95.4% | remaining activity at 10 µM [33]: 96.3% | remaining activity at 10 µM [34]: 96.3% | remaining activity at 10 µM [35]: 97.5%
